Earlier results in paper PMC4460250, “Systems Pharmacology Dissecting Holistic Medicine for Treatment of Complex Diseases: An Example Using Cardiocerebrovascular Diseases Treated by TCM” (Evidence-based Complementary and Alternative Medicine : eCAM, 2015).
Where two headings read alike, the source gives them in different places.

Conditions: cited from earlier work

Row | Compound | HIA(Human Intestinal Absorption) (in vivo) | HIA(Human Intestinal Absorption) (human, PreHIA data set, value given as fraction)
1 | N[C@@H](C(=O)N[C@@H]1C(=O)N2C(C(=O)O)=C(CSc3c[nH]nn3)CS[C@H]12)c1ccc(O)cc1 [Cefatrizine] | 0.76 | –
2 | Nc1c2c(nc3ccccc13)CCCC2 [Tacrine] | 0.95 | –
3 | Cc1c(OCC(F)(F)F)ccnc1C[S+]([O-])c1nc2ccccc2[nH]1 (stereo not shown) [Lansoprazole] | 0.85 | –
4 | NC(=O)N1c2ccccc2C=Cc2ccccc21 [Carbamazepine] | 1 | –
5 | [H]/N=C(\N/C(=N/[H])NCCCCCCNC(=N)NC(=N)Nc1ccc(Cl)cc1)Nc1ccc(Cl)cc1 [Chlorhexidine] | 0.05 | –
6 | O=C(O)c1cc(/N=N/c2ccc(S(=O)(=O)Nc3ccccn3)cc2)ccc1O [Sulfasalazine] | 0.62 | –
7 | O=C(NCCO[N+](=O)[O-])c1cccnc1 [Nicorandil] | 1 | –
8 | Cc1cccc(Nc2ccccc2C(=O)O)c1C [Mefenamic_acid] | 0.9 | –
9 | Clc1cccc(Cl)c1N=C1NCCN1 [Clonidine] | 0.95 | –
10 | CNC(=C[N+](=O)[O-])NCCSCc1csc(CN(C)C)n1 [Nizatidine] | 0.9 | –
11 | CNCCC=C1c2ccccc2CCc2ccccc21 [Nortriptyline] | 1 | –
12 | CN(C)CCCOc1nn(Cc2ccccc2)c2ccccc12 [Benzydamine] | 0.87 | –
13 | NCC[C@H](O)C(=O)N[C@@H]1C[C@H](N)[C@@H](O[C@H]2O[C@H](CN)CC[C@H]2N)[C@H](O)[C@H]1O[C@H]1O[C@H](CO)[C@@H](O)[C@H](N)[C@H]1O [Arbekacin] | 0.01 | –
14 | COc1cc(N)c(Cl)cc1C(=O)NC1CCN(CCCOc2ccc(F)cc2)CC1OC (stereo not shown) [Cisapride] | 1 | –
15 | C[n+]1ccccc1/C=N/O [Pralidoxime] | 0.3 | –
16 | C[C@H]1C[C@@H]2[C@H]([C@@H](O)C[C@@]3(C)[C@H]2CC[C@]3(O)C(=O)CO)[C@@]2(C)C=CC(=O)C=C12 [Methylprednisolone] | 0.82 | –
17 | CNCCCN1c2ccccc2CCc2ccccc21 [Desipramine] | 1 | –
18 | CCc1cc(C(N)=S)ccn1 [Ethionamide] | 0.9 | –
19 | CC1=C(C(=O)O)N2C(=O)[C@@H](NC(=O)[C@H](N)c3ccc(O)cc3)[C@H]2SC1 [Cefadroxil] | 1 | –
20 | CCC[C@H](N[C@@H](C)C(=O)N1[C@H](C(=O)O)C[C@@H]2CCCC[C@@H]21)C(=O)OCC [Perindopril] | 0.95 | –
21 | Cc1ccc(S(=O)(=O)NC(=O)N[C@H]2[C@H]3CC[C@@](C)([C@H]2O)C3(C)C)cc1 [Glibornuride] | 0.98 | –
22 | C#C[C@]1(O)CC[C@H]2[C@@H]3CCc4cc(O)ccc4[C@H]3CC[C@@]21C [Ethynylestradiol] | 1 | –
23 | NC[C@H]1O[C@H](O[C@H]2[C@H](O)[C@@H](O[C@H]3O[C@H](CO)[C@@H](O)[C@H](N)[C@H]3O)[C@H](N)C[C@@H]2N)[C@H](N)C[C@@H]1O [Tobramycin] | 0.01 | –
24 | CCCCCOC(=O)Nc1nc(=O)n([C@@H]2O[C@H](C)[C@@H](O)[C@H]2O)cc1F [Capecitabine] | 0.96 | –

Row | Compound | HIA(Human Intestinal Absorption) (in vivo) | HIA(Human Intestinal Absorption) (human, PreHIA data set, value given as fraction)
25 | CC1(C)O[C@@H]2C[C@H]3[C@@H]4C[C@H](F)C5=CC(=O)C=C[C@]5(C)[C@H]4[C@@H](O)C[C@]3(C)[C@]2(C(=O)CO)O1 [Flunisolide] | 0.8 | –
26 | CN(C)CCC(c1ccc(Cl)cc1)c1ccccn1 (stereo not shown) [Chlorpheniramine] | 0.8 | –
27 | CC(C)(C)NCC(O)COc1cccc2c1CC(O)C(O)C2 (stereo not shown) [Nadolol] | 0.57 | –
28 | CO/N=C(\C(=O)N[C@@H]1C(=O)N2C(C(=O)O)=C(CSc3nc(=O)c(=O)[nH]n3C)CS[C@H]12)c1csc(N)n1 [Ceftriaxone] | 1 | –
29 | O=C(O)c1cc(/N=N/c2ccc(O)c(C(=O)O)c2)ccc1O [Olsalazine] | 0.24 | –
30 | CC(=O)N(CC(O)CO)c1c(I)c(C(=O)NCC(O)CO)c(I)c(C(=O)NCC(O)CO)c1I (stereo not shown) [Iohexol] | 0.05 | –
31 | CN1CCN2c3ccccc3Cc3ccccc3C2C1 (stereo not shown) [Mianserin] | 0.7 | –
32 | Nc1cc(-c2ccncc2)c[nH]c1=O [Amrinone] | 0.93 | –
33 | CC[C@@H](CO)NC(=O)[C@@H]1C=C2c3cccc4[nH]cc(c34)C[C@H]2N(C)C1 [Methylergonovine] | 1 | –
34 | CN1CCC(=C2c3ccccc3CCc3sccc32)CC1 [Pizotyline] | 0.8 | –
35 | N[C@@H](Cc1ccc(O)c(O)c1)C(=O)O [Levodopa] | – | 0.86
36 | C[C@@H](O)[C@H]1C(=O)N2C(C(=O)O)=C(SCCN=CN)C[C@H]12 [Imipenem] | 0.05 | –
37 | CC(O)(P(=O)(O)O)P(=O)(O)O [Etidronate] | 0.05 | –
38 | CC(O)(CS(=O)(=O)c1ccc(F)cc1)C(=O)Nc1ccc(C#N)c(C(F)(F)F)c1 (stereo not shown) [Bicalutamide] | 0.9 | –
39 | CC1(C)S[C@@H]2[C@H](NC(=O)[C@H](NC(=O)N3CCN(S(C)(=O)=O)C3=O)c3ccccc3)C(=O)N2[C@H]1C(=O)O [Mezlocillin] | 0.01 | –
40 | CC(C)(C)NC[C@H](O)COc1cccc2c1CCCC2=O [Levobunolol] | 1 | –
41 | c1ccc([C@H]2CN3CCSC3=N2)cc1 [Levamisole] | 0.95 | –
42 | O=C(O)c1cc(/N=N/c2ccc(S(=O)(=O)Nc3ccccn3)cc2)ccc1O [Sulphasalazine] | 0.59 | –
43 | CN/C(=N/CCSCc1nc[nH]c1C)NC#N [Cimetidine] | 0.64 | –
44 | COc1ccc2[nH]c([S+]([O-])Cc3ncc(C)c(OC)c3C)nc2c1 (stereo not shown) [Omeprazole] | 0.8 | –
45 | COc1ccc(CCN2CCC(Nc3nc4ccccc4n3Cc3ccc(F)cc3)CC2)cc1 [Astemizole] | 1 | –
46 | C[C@]12C[C@H](O)[C@H]3[C@@H](CCC4=CC(=O)CC[C@@]43C)[C@@H]1CC[C@@H]2C(=O)CO [Corticosterone] | 1 | –
47 | CN(C)C(=N)N=C(N)N [Metformin] | 0.53 | –
48 | Cc1cn([C@H]2C=C[C@@H](CO)O2)c(=O)[nH]c1=O [Stavudine] | 1 | –

Row | Compound | HIA(Human Intestinal Absorption) (in vivo) | HIA(Human Intestinal Absorption) (human, PreHIA data set, value given as fraction)
49 | CN(C)CC/C=C1\c2ccccc2CSc2ccccc21 [Dothiepin] | 0.95 | –
50 | NNC(=O)c1ccncc1 [Isoniazid] | 0.8 | –
51 | CC#Cc1cn([C@@H]2O[C@H](CO)[C@@H](O)[C@@H]2O)c(=O)[nH]c1=O [Netivudine] | 0.28 | –
52 | CC(=O)OCC(=O)[C@@]1(O)CC[C@H]2[C@@H]3CCC4=CC(=O)CC[C@]4(C)[C@@]3(F)[C@@H](O)C[C@@]21C [Fludrocortisone_acetate] | 0.95 | –
53 | NS(=O)(=O)c1cc(C(=O)O)cc(N2CCCC2)c1Oc1ccccc1 [Piretanide] | 0.85 | –
54 | O=C(O)Cc1ccccc1Oc1ccc(Cl)cc1Cl [Fenclofenac] | 1 | –
55 | Fc1ccc([C@@H]2CCNC[C@H]2COc2ccc3c(c2)OCO3)cc1 [Paroxetine] | 1 | –
56 | COC(=O)Nc1nc2ccc(C(=O)c3ccccc3)cc2[nH]1 [Mebendazole] | 1 | –
57 | Cc1ccc(O)c([C@H](CCN(C(C)C)C(C)C)c2ccccc2)c1 [Tolterodine] | 0.77 | –
58 | CC[C@H]1OC(=O)[C@H](C)C(=O)[C@H](C)[C@@H](O[C@@H]2O[C@H](C)C[C@H](N(C)C)[C@H]2O)[C@](C)(OC)C[C@@H](C)C(=O)[C@H](C)[C@H]2N(CCCCn3cnc(-c4cccnc4)c3)C(=O)O[C@]12C [Telithromycin] | 0.9 | –
59 | O=C(NCCN1CCOCC1)c1ccc(Cl)cc1 [Moclobemide] | 0.88 | –
60 | CC(C)N(CCC(C(N)=O)(c1ccccc1)c1ccccn1)C(C)C (stereo not shown) [Disopyramide] | 0.95 | –
61 | CC[C@H](C)C(=O)O[C@H]1C[C@H](O)C=C2C=C[C@H](C)[C@H](CC[C@@H](O)C[C@@H](O)CC(=O)O)[C@H]21 [Pravastatin] | 0.34 | –
62 | Nc1nc(O)c2ncn(COC(CO)CO)c2n1 [Ganciclovir] | 0.038 | –
63 | NCCC(O)(P(=O)(O)O)P(=O)(O)O [Pamidronic_acid] | 0.05 | –
64 | CCOC(=O)C(C)(C)Oc1ccc(Cl)cc1 [Clofibrate] | 0.97 | –
65 | CN(C)CCCN1c2ccccc2CCc2ccccc21 [Imipramine] | 1 | –
66 | CC/C(=C(/CC)c1ccc(O)cc1)c1ccc(O)cc1 [Diethylstilbestrol] | 0.9 | –
67 | Cc1cn([C@H]2C[C@H](N=[N+]=[N-])[C@@H](CO)O2)c(=O)[nH]c1=O [Zidovudine] | 1 | –
68 | CC1(C)O[C@@H]2[C@@H](CO[C@@]3(COS(N)(=O)=O)OC(C)(C)O[C@@H]23)O1 [Topiramate] | 0.86 | –
69 | CSc1ccc(C(=O)c2[nH]c(=O)[nH]c2C)cc1 [Enoximone] | 0.8 | –
70 | CC(CCc1ccccc1)NCC(O)c1ccc(O)c(C(N)=O)c1 (stereo not shown) [Labetalol] | 0.95 | –
